Measurements: patent US9822126B1, “Substituted 1,2,3-triazol-1-yl-methyl-2,3-dihydro-2-methyl-6-nitroimidazo[2,1-b]oxazoles as anti-mycobacterial agents and a process for the preparation thereof” (priority 2014, dated 2017)
≈ marks a conversion by molar mass, not a printed value. Read-outs that look alike come from different tables or passages of the source.

Columns and labels:
Assay in all cases: microbe, parasite or virus in culture
Assay type in all cases: cell-based
[1] = system: Rif^R: rifampicin resistant tuberculosis; conditions: Mycobacterium tuberculosis, read-out: MIC (Rif^R)
[2] = system: M. tuberculosis MDR (resistant to isoniazid and rifampicin); conditions: Mycobacterium tuberculosis
[3] = system: M. tuberculosis XDR (resistant to isoniazid, rifampicin, amikacin and moxifloxacin); conditions: Mycobacterium tuberculosis, 504 h, read-out: MIC XDR
[4] = read-out: MIC against multi and extensive-drug resistant strains

Structure (SMILES)	MIC [1]	MIC ([2]; 504 h, read-out: MIC MDR)	MIC [3]	MIC ([2]; read-out: MIC value)	MIC [2, 4]
C[C@]1(Cn2cc(-c3ccc(Oc4ccccc4)cc3)nn2)Cn2cc([N+](=O)[O-])nc2O1 [I6, (R)-2-Methyl-6-nitro-2-((4-(4-phenoxyphenyl)-1H-1,2,3-triazol-1-yl)methyl)-2,3-dihydroimidazo[2,1-b]oxazole]	1 µg/mL (≈ 2.39 µM)	1 µg/mL (≈ 2.39 µM)	1 µg/mL (≈ 2.39 µM)		
C[C@]1(Cn2cc(COc3ccccn3)nn2)Cn2cc([N+](=O)[O-])nc2O1 [I19, (R)-2-Methyl-6-nitro-2-((4-((pyridin-2-yloxy)methyl)-1H-1,2,3-triazol-1-yl)methyl)-2,3-dihydroimidazo[2,1-b]oxazole]	0.5 µg/mL (≈ 1.4 µM)	0.25 µg/mL (≈ 0.7 µM)	0.5 µg/mL (≈ 1.4 µM)	< 1 µg/mL	
Cc1ccccc1OCc1cn(C[C@@]2(C)Cn3cc([N+](=O)[O-])nc3O2)nn1 [I14, (R)-2-Methyl-6-nitro-2-((4-((o-tolyloxy)methyl)-1H-1,2,3-triazol-1-yl)methyl)-2,3-dihydroimidazo[2,1-b]oxazole]	1 µg/mL (≈ 2.7 µM)	1 µg/mL (≈ 2.7 µM)	1 µg/mL (≈ 2.7 µM)		
CCc1ccc(OCc2cn(C[C@@]3(C)Cn4cc([N+](=O)[O-])nc4O3)nn2)cc1 [I15, (R)-2-((4-((4-Ethylphenoxy)methyl)-1H-1,2,3-triazol-1-yl)methyl)-2-methyl-6-nitro-2,3-dihydroimidazo[2,1-b]oxazole]	4 µg/mL (≈ 10.4 µM)	2 µg/mL (≈ 5.2 µM)	4 µg/mL (≈ 10.4 µM)		
C[C@]1(Cn2cc(COc3ccc(OC(F)(F)F)cc3)nn2)Cn2cc([N+](=O)[O-])nc2O1 [I8, (R)-2-Methyl-6-nitro-2-((4-((4-(trifluoromethoxy)phenoxy)methyl)-1H-1,2,3-triazol-1-yl)methyl)-2,3-dihydroimidazo[2,1-b]oxazole]	2 µg/mL (≈ 4.54 µM)	2 µg/mL (≈ 4.54 µM)	2 µg/mL (≈ 4.54 µM)		
Cc1ccc(OCCc2cn(C[C@@]3(C)Cn4cc([N+](=O)[O-])nc4O3)nn2)cc1 [I21, (R)-2-Methyl-6-nitro-2-((4-(2-(p-tolyloxy)ethyl)-1H-1,2,3-triazol-1-yl)methyl)-2,3-dihydroimidazo[2,1-b]oxazole]	1 µg/mL (≈ 2.6 µM)	0.25 µg/mL (≈ 0.65 µM)	0.25 µg/mL (≈ 0.65 µM)	< 1 µg/mL	0.25 µg/mL (≈ 0.65 µM)
C[C@]1(Cn2cc(COc3ccccc3F)nn2)Cn2cc([N+](=O)[O-])nc2O1 [I17, (R)-2-((4-((2-Fluorophenoxy)methyl)-1H-1,2,3-triazol-1-yl)methyl)-2-methyl-6-nitro-2,3-dihydroimidazo[2,1-b]oxazole]	1 µg/mL (≈ 2.67 µM)	0.5 µg/mL (≈ 1.34 µM)	1 µg/mL (≈ 2.67 µM)	< 1 µg/mL	0.5 µg/mL (≈ 1.34 µM)
C[C@]1(Cn2cc(-c3ccc(F)cc3)nn2)Cn2cc([N+](=O)[O-])nc2O1 [I3, (R)-2-((4-(4-Fluorophenyl)-1H-1,2,3-triazol-1-yl)methyl)-2-methyl-6nitro-2,3-dihydro imidazo[2,1-b]oxazole]	2 µg/mL (≈ 5.81 µM)	2 µg/mL (≈ 5.81 µM)	2 µg/mL (≈ 5.81 µM)		
C[C@]1(Cn2cc(COc3cccc(F)c3)nn2)Cn2cc([N+](=O)[O-])nc2O1 [I16, (R)-2-((4-((3-Fluorophenoxy)methyl)-1H-1,2,3-triazol-1-yl)methyl)-2-methyl-6-nitro-2,3-dihydroimidazo[2,1-b]oxazole]	2 µg/mL (≈ 5.34 µM)	2 µg/mL (≈ 5.34 µM)	2 µg/mL (≈ 5.34 µM)		
C[C@]1(Cn2cc(CN3CCOCC3)nn2)Cn2cc([N+](=O)[O-])nc2O1 [I22, (R)-2-Methyl-2-((4-(morpholinomethyl)-1H-1,2,3-triazol-1-yl)methyl)-6-nitro-2,3-dihydroimidazo[2,1-b]oxazole]	2 µg/mL (≈ 5.72 µM)	2 µg/mL (≈ 5.72 µM)	2 µg/mL (≈ 5.72 µM)		
CC(C)c1ccc(OCc2cn(C[C@@]3(C)Cn4cc([N+](=O)[O-])nc4O3)nn2)cc1 [I18, (R)-2-((4-((4-Isopropylphenoxy)methyl)-1H-1,2,3-triazol-1-yl)methyl)-2-methyl-6-nitro-2,3-dihydroimidazo[2,1-b]oxazole]	2 µg/mL (≈ 5.02 µM)	1 µg/mL (≈ 2.51 µM)	4 µg/mL (≈ 10 µM)		
Cc1cccc(OCc2cn(C[C@@]3(C)Cn4cc([N+](=O)[O-])nc4O3)nn2)c1 [I13, (R)-2-Methyl-6-nitro-2-((4-((m-tolyloxy)methyl)-1H-1,2,3-triazol-1-yl)methyl)-2,3-dihydroimidazo[2,1-b]oxazole]	1 µg/mL (≈ 2.7 µM)	1 µg/mL (≈ 2.7 µM)	2 µg/mL (≈ 5.4 µM)		
Cc1ccc(OCc2cn(C[C@@]3(C)Cn4cc([N+](=O)[O-])nc4O3)nn2)cc1 [I12, (R)-2-Methyl-6-nitro-2-((4-((p-tolyloxy)methyl)-1H-1,2,3-triazol-1-yl)methyl)-2,3-dihydroimidazo[2,1-b]oxazole]	8 µg/mL (≈ 21.6 µM)	2 µg/mL (≈ 5.4 µM)	8 µg/mL (≈ 21.6 µM)		
Cc1cc(-c2cn(C[C@@]3(C)Cn4cc([N+](=O)[O-])nc4O3)nn2)ccc1F [I4, (R)-2-((4-(4-Fluoro-3-methylphenyl)-1H-1,2,3-triazol-1-yl)methyl)-2-methyl-6-nitro-2,3-dihydroimidazo[2,1-b]oxazole]	1 µg/mL (≈ 2.79 µM)	4 µg/mL (≈ 11.2 µM)	2 µg/mL (≈ 5.58 µM)		
C[C@]1(Cn2cc(COc3ccc(Br)cc3)nn2)Cn2cc([N+](=O)[O-])nc2O1 [I11, (R)-2-((4-((4-Bromophenoxy)methyl)-1H-1,2,3-triazol-1-yl)methyl)-2-methyl-6-nitro-2,3-dihydroimidazo[2,1-b]oxazole]	0.12 µg/mL (≈ 0.276 µM)	0.12 µg/mL (≈ 0.276 µM)	0.25 µg/mL (≈ 0.574 µM)	< 1 µg/mL	0.12 µg/mL (≈ 0.276 µM)
C[C@]1(Cn2cc(COc3ccc(C(F)(F)F)cc3)nn2)Cn2cc([N+](=O)[O-])nc2O1 [I9, (R)-2-Methyl-6-nitro-2-((4-((4-(trifluoromethyl)phenoxy)methyl)-1H-1,2,3-triazol-1-yl)methyl)-2,3-dihydroimidazo[2,1-b]oxazole]	4 µg/mL (≈ 9.43 µM)	4 µg/mL (≈ 9.43 µM)	4 µg/mL (≈ 9.43 µM)		
Cc1ccc(SCc2cn(C[C@@]3(C)Cn4cc([N+](=O)[O-])nc4O3)nn2)cc1 [I20, (R)-2-Methyl-6-nitro-2-((4-((p-tolylthio)methyl)-1H-1,2,3-triazol-1-yl)methyl)-2,3-dihydroimidazo[2,1-b]oxazole]	0.25 µg/mL (≈ 0.647 µM)	0.5 µg/mL (≈ 1.29 µM)	2 µg/mL (≈ 5.18 µM)	< 1 µg/mL	
C[C@]1(Cn2cc(-c3ccc(F)cc3F)nn2)Cn2cc([N+](=O)[O-])nc2O1 [I5, (R)-2-((4-(2,4-Difluorophenyl)-1H-1,2,3-triazol-1-yl)methyl)-2-methyl-6-nitro-2,3-dihydroimidazo[2,1-b]oxazole]	4 µg/mL (≈ 11 µM)	1 µg/mL (≈ 2.76 µM)	4 µg/mL (≈ 11 µM)		
CCCCCc1cn(C[C@@]2(C)Cn3cc([N+](=O)[O-])nc3O2)nn1 [I7, (R)-2-[(4-Pentyl-1H-1,2,3-triazol-1-yl)methyl]-2,3-dihydro-2-methyl-6-nitroimidazo[2,1-b]oxazole]	8 µg/mL (≈ 25 µM)	2 µg/mL (≈ 6.24 µM)	8 µg/mL (≈ 25 µM)		
C[C@]1(Cn2cc(-c3ccc(OC(F)(F)F)cc3)nn2)Cn2cc([N+](=O)[O-])nc2O1 [I1, (R)-2-Methyl-6-nitro-2-((4-(4-(trifluoromethoxy)phenyl)-1H-1,2,3-triazol-1-yl)methyl)-2,3-dihydroimidazo[2,1-b]oxazole]	2 µg/mL (≈ 4.87 µM)	2 µg/mL (≈ 4.87 µM)	1 µg/mL (≈ 2.44 µM)		
C[C@]1(Cn2cc(COc3cccc(Cl)c3)nn2)Cn2cc([N+](=O)[O-])nc2O1 [I10, (R)-2-((4-((3-Chlorophenoxy)methyl)-1H-1,2,3-triazol-1-yl)methyl)-2-methyl-6-nitro-2,3-dihydroimidazo[2,1-b]oxazole]	2 µg/mL (≈ 5.12 µM)	2 µg/mL (≈ 5.12 µM)	4 µg/mL (≈ 10.2 µM)		
C[C@]1(Cn2cc(-c3ccc(C(F)(F)F)cc3)nn2)Cn2cc([N+](=O)[O-])nc2O1 [I2, (R)-2-Methyl-6-nitro-2-((4-(4-(trifluoromethyl)phenyl)-1H-1,2,3-triazol-1-yl)methyl)-2,3-dihydroimidazo[2,1-b]oxazole]	4 µg/mL (≈ 10.1 µM)	2 µg/mL (≈ 5.07 µM)	2 µg/mL (≈ 5.07 µM)		
